Data: patent publication US20100273806A1, “TETRAHYDROCYCLOPENTA[B]INDOL-3-YL CARBOXYLIC ACID DERIVATIVES USEFUL IN THE TREATMENT OF AUTOIMMUNE AND INFLAMMATORY DISORDERS” (ARENA PHARMACEUTICALS, INC., priority 2007, published 2010)
“Also recorded” adds a separate entry of the source.

Columns and labels:
S1P1 receptor = target: T1, S1P1 receptor (Homo sapiens, UniProt P21453); assay: HTRF assay for direct cAMP measurement (S1P1 receptor agonists); format: cell-based; settings: recombinant CHO-K1 cells stably transfected with S1P1 receptor; decrease of cAMP concentration
T1 construct: expressed in transfected cells; host or cells: CHO-K1 (ATCC CCL-61), stably transfected
Description: Compounds were screened for agonists of S1P1 receptor (e.g., human S1P1 receptor) using HTRF® assay for direct cAMP measurement (Gabriel et al, ASSAY and Drug Development Technologies, 1:291-303, 2003) and recombinant CHO-K1 cells stably transfected with S1P1 receptor. CHO-K1 cells were obtained from ATCC® (Manassas, Va.; Catalog #CCL-61). An agonist of S1P1 receptor was detected in HTRF® assay for direct cAMP measurement as a compound which decreased cAMP concentration. HTRF® assay also was used to determine EC50 values for S1P1 receptor agonists.
Principle of the assay: HTRF® assay kit was purchased from Cisbio-US, Inc. (Bedford, Mass.; Catalog #62AM4PEC). The HTRF® assay supported by the kit is a competitive immunoassay between endogenous cAMP produced by the CHO-K1 cells and tracer cAMP labeled with the dye d2. The tracer binding is visualized by a monoclonal anti-cAMP antibody labeled with Cryptate. The specific signal (i.e., fluorescence resonance energy transfer, FRET) is inversely proportional to the concentration of unlabeled cAMP in the standard or sample.
The fluorescence ratio of the samples (test compound or compound buffer) was calculated and used to deduce respective cAMP concentrations by reference to the cAMP standard curve.
Setup of the assay: HTRF® assay was carried out using a two-step protocol essentially according to the kit manufacturer's instructions, in 20 μL total volume per well in 384-well plate format (ProxiPlates; PerkinElmer, Fremont, Calif.; catalog #6008280). To each of the experimental wells was transferred 1500 recombinant CHO-K1 cells in 5 μL phosphate buffered saline containing calcium chloride and magnesium chloride (“PBS+”; Invitrogen, Carlsbad, Calif.; catalog #14040) supplemented with IBMX (250 μM) and rolipram (20 μM) (phosphodiesterase inhibitors; Sigma-Aldrich, St. Louis, Mo.; catalog #I5879 and catalog #R6520, respectively), followed by test compound in 5 μL compound buffer (PBS+ supplemented with […] (water-soluble forskolin derivative; SignaGen Laboratories, Gaithersburg, Md.; catalog #PKI-NKH477-010)) or 5 μL compound buffer. The plate was then incubated at room temperature for 1 hour. To each well was then added 5 μL cAMP-d2 conjugate in lysis buffer and 5 μL Cryptate conjugate in lysis buffer according to the kit manufacturer's instructions. The plate was then further incubated at room temperature for 1 hour, after which the assay plate was read.
Assay readout: HTRF® readout was accomplished using a PHERAstar (BMG LABTECH Inc., Durham, N.C.) or EnVision™ (PerkinElmer, Fremont Calif.) microplate reader.

Male BALB/c mice = assay: Mouse peripheral lymphocyte lowering (PLL) assay; format: in vivo; settings: 1 mg/kg i.v. in 100% PEG400, 5 h post dose, compared with vehicle; *P<0.05; FIG. 2
Procedure: Animals: Male BALB/c mice (6 to 7 weeks of age at start of study) (Charles River Laboratories, Wilmington, Mass.) were housed four per cage and maintained in a humidity- (40-60%) and temperature- (68-72° F.) controlled facility on a 12 h:12 h light/dark cycle (lights on at 6:30 am) with free access to food (Harlan Teklad, Orange, Calif., Rodent Diet 8604) and water. Mice were allowed one week of habituation to the animal facility before testing.
PLL Assay: Mice were administered via i.v. one of the following: saline, vehicle (100% PEG400) or 1 mg/kg Compound 52 in vehicle, in a total volume of 5 ml/kg. Peripheral blood samples were collected at 5 h post dose. The mice were anesthetized with isoflurane and bled retro-orbitally (300 μL) into 1.5 ml EDTA tubes. A complete cell count (CBC) (including lymphocyte count) was obtained using CELL-DYN® 3700 (Abbott Laboratories, Abbott Park, Ill.). Results are presented in FIG. 2, in which peripheral blood lymphocyte (PBL) count is shown for the 5 hour group.

S1P3 receptor = S1P3 receptor (Homo sapiens, UniProt Q99500); assay: Cellular/functional Ca2+ assay for agonist activity on S1P3 receptor; format: cell-based; parameters: a human neuroblastoma cell line which endogenously expresses S1P3 (predominantly); endogenous in cells; settings: human neuroblastoma cell line endogenously expressing S1P3; FIG. 1
Description: Of these, S1P3 and S1P2 receptors respond to agonist, such as S1P, with an intracellular calcium increase. […] Such an assay can be performed commercially, e.g. by Caliper LifeSciences (Hopkinton, Mass.).
Assay: The human neuroblastoma cells were washed and resuspended in physiological buffer. The cells were then loaded with dye that measures intracellular calcium. S1P was used as a reference agonist. Compound 52 was included in the assay as a test compound. After addition of S1P or Compound 52, fluorescence was measured at 485 nm excitation/525 nm emission every 2 s for at least 60 s. Calcium ionophore A23187 was then added as an internal positive control.

Sequence of S1P3 receptor (Q99500 whole entry): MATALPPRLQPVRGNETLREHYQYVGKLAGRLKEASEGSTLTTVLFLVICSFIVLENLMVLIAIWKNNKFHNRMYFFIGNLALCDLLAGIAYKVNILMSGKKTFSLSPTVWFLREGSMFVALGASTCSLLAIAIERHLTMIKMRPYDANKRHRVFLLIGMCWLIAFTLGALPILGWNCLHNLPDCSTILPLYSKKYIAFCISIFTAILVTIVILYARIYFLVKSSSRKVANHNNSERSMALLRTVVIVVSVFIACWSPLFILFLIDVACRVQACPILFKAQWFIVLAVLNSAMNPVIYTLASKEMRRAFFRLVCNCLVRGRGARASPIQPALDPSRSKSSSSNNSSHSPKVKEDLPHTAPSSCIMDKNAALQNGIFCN
T1 sequence (P21453 whole entry): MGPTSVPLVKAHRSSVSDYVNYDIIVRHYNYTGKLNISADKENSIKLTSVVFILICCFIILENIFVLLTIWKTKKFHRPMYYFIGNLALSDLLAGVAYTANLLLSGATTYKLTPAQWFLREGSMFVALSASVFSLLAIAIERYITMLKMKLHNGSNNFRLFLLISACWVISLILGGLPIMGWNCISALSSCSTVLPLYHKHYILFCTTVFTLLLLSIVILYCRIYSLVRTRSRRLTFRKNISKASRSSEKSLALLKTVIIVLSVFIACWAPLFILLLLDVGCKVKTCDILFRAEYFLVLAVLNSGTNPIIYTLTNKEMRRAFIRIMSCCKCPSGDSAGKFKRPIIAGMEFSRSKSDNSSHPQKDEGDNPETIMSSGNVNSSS

EC50 (S1P1 receptor)	SMILES	peripheral blood lymphocyte (PBL) count / peripheral lymphocyte lowering (Male BALB/c mice)	agonist activity on S1P3 receptor (intracellular calcium) (S1P3 receptor)
18.8 nM	N#Cc1cc(-c2nc(-c3ccc4[nH]c5c(c4c3)CCC5CC(=O)O)no2)ccc1OC1CCCC1 (single isomer, unassigned) [Compound 19, 2-(7-(5-(3-Cyano-4-(cyclopentyloxy)phenyl)-1,2,4-oxadiazol-3-yl)-1,2,3,4-tetrahydrocyclopenta[b]indol-3-yl)acetic Acid]		
43 nM	N#Cc1cc(OCCF)cc(-c2nc(-c3ccc4[nH]c5c(c4c3)CCC5CC(=O)O)no2)c1 (stereo not shown) [Compound 32, 2-(7-(5-(3-Cyano-5-(2-fluoroethoxy)phenyl)-1,2,4-oxadiazol-3-yl)-1,2,3,4-tetrahydrocyclopenta[b]indol-3-yl)acetic Acid]		
94 nM	COc1ccc(-c2nc(-c3ccc4[nH]c5c(c4c3)CCC5CC(=O)O)no2)cc1C(F)(F)F (stereo not shown) [Compound 42, 2-(7-(5-(4-Methoxy-3-(trifluoromethyl)phenyl)-1,2,4-oxadiazol-3-yl)-1,2,3,4-tetrahydrocyclopenta[b]indol-3-yl)acetic Acid]		
83 nM	O=C(O)CC1CCc2c1[nH]c1ccc(-c3noc(-c4ccc(OCC(F)(F)F)nc4)n3)cc21 (stereo not shown) [Compound 47, 2-(7-(5-(6-(2,2,2-Trifluoroethoxy)pyridin-3-yl)-1,2,4-oxadiazol-3-yl)-1,2,3,4-tetrahydrocyclopenta[b]indol-3-yl)acetic Acid]		
230 nM	NC(=O)c1cc(OC(F)(F)F)cc(-c2nc(-c3ccc4[nH]c5c(c4c3)CCC5CC(=O)O)no2)c1 (stereo not shown) [Compound 51, 2-(7-(5-(3-Carbamoyl-5-(trifluoromethoxy)phenyl)-1,2,4-oxadiazol-3-yl)-1,2,3,4-tetrahydrocyclopenta[b]indol-3-yl)acetic Acid]		
75.9 nM	O=C(O)CC1CCc2c1[nH]c1ccc(-c3noc(-c4cc(C(F)(F)F)cc(C(F)(F)F)c4)n3)cc21 (stereo not shown) [Compound 52, 2-(7-(5-(3,5-Bis(trifluoromethyl)phenyl)-1,2,4-oxadiazol-3-yl)-1,2,3,4-tetrahydrocyclopenta[b]indol-3-yl)acetic Acid]	exhibited activity for inducing peripheral lymphocyte lowering	substantially little to no activity; also recorded: no or substantially no agonist activity
210 nM	CCOc1ncc(-c2nc(-c3ccc4[nH]c5c(c4c3)CCC5CC(=O)O)no2)cc1C (stereo not shown) [Compound 62, 2-(7-(5-(6-Ethoxy-5-methylpyridin-3-yl)-1,2,4-oxadiazol-3-yl)-1,2,3,4-tetrahydrocyclopenta[b]indol-3-yl)acetic Acid]		
	CNc1ccc2oc(C[C@H]3O[C@@]4(CC[C@H]3C)O[C@H]([C@H](C)C(=O)c3ccc[nH]3)[C@H](C)C[C@H]4C)nc2c1C(=O)O [Compound A23187, reference compound]		pronounced agonist activity
